Data as given in paper PMC11232398, “Antimalarial activity of cecropin antimicrobial peptides derived from Anopheles mosquitoes” (Antimicrobial Agents and Chemotherapy, 2024).
Like-named read-outs stand apart in the source and are kept apart here.

How the values were obtained:
[1] = tested on: P. falciparum 3D7 (sensitive strain); experiment: In vitro antimalarial activity, 3-day inhibition assay; type: cell-based, Plasmodium falciparum; conditions: Giemsa smears
Description: Blood stages of the laboratory clones P. falciparum 3D7 (sensitive strain), P. falciparum 803 (artemisinin-resistant strain), and P. falciparum Dd2 (chloroquine-resistant strain) were cultured in vitro according to the method of Trager and Jensens with minor modifications ([37]). Briefly, cultures were maintained in O-positive human erythrocytes (RBCs) as host cells at 2% hematocrit and maintained in complete medium (CM) [RPMI-1640 culture medium supplemented with NaHCO3 (2 mg/mL), hypoxanthine (50 µg/mL), HEPES (5.96 mg/mL), albumax II (1%), and gentamicin (40 µg/mL)]. The cultures were diluted to 1% parasitemia and 2% hematocrit in CM and incubated in a humidified atmosphere with 5% O2, 5% CO2, and 90% N2 at 37°C. Prior to experiments, the cultures were highly synchronized for ring stages using 5% sorbitol twice at a 40-h interval. Briefly, ring stage cultures were centrifuged and the pellet was washed once in incomplete medium (ICM, RPMI-1640 without addition). Then, the pellet was resuspended in 5% sorbitol and incubated at 37°C for 10 min. After incubation, the suspension was centrifuged and the pellet was washed once and resuspended in medium. The development of the parasite was observed using light microscopy, and parasitemia was determined by counting at least 10,000 RBCs on Giemsa’s solution-stained thin blood smears.
Highly synchronous ring stage parasites were used to investigate the in vitro antimalarial activity of the peptides. For preliminary screening of in vitro antimalarial activity, a 3-day inhibition assay was used to test the antimalarial activity of An-cecA, An-cecB, and An-cecC. […] For IC50 assay, a series of concentrations of peptides were added to the parasite culture. The concentrations of An-cecB were 5, 15, 20, 25, 30, 35, and 40 µM, while those of An-cecB-1 were 20, 30, 40, 50, 60, 70, 80, and 90 µM. After 72 hours of incubation, the antimalarial effects of peptides were estimated. Thin blood films stained with Giemsa’s solution were counted under a microscope. The parasitemia of cultures treated with peptides was compared with that of control. IC50 was calculated by GraphPad Prism.

[2] = tested on: P. falciparum 3D7 ring, trophozoite and schizont stages; experiment: Stage-specific parasite inhibition assay; type: cell-based, Plasmodium falciparum; conditions: 40 µM for 12 hours at ring, trophozoite or schizont stage; reinvasion parasitemia at 50 hpi and after 1:40 dilution and 4 days
Description: The activity of An-cecB against different blood stage parasites was evaluated. Parasites were exposed to An-cecB at a lethal concentration of 40 µM for 12 hours at the ring stage [[…] (hours post invasion)], trophozoite stage (17–29 hpi), and schizont stage (29–41 hpi) (Fig. 2a). […] Parasites were then washed and cultured for 4 days […].
To analyze the stage-specific parasite inhibition, highly synchronized ring-stage parasites of the 3D7 strain were cultured in 48-well plates with a starting parasitemia of 0.5% ~ 1% at a hematocrit of 2%. The tested peptide at a concentration of 40 µM was added to ring stage parasites (5 hpi), trophozoites (17 hpi), and schizonts (29 hpi). After treatment for 12 hours, the parasites were washed three times to remove the peptide and the re-invaded parasites (50 hpi) were analyzed. The parasitemia (50hpi) was diluted 1:40 by new RBCs and cultured for a further 4 days. CM was used as a blank control. Parasitemia was counted under a microscope.

[3] = tested on: Bacillus subtilis (ATCC); experiment: Antimicrobial assay, broth dilution; type: cell-based; conditions: B. subtilis
Description: (§1) Gram-positive bacteria S. aureus, B. subtilis, and Gram-negative E. coli were used in antimicrobial assays. Bacteria were first grown in LB (Luria-Bertani) broth to an absorbance of 0.8 at 600 nm. The antibacterial behavior of the peptides was studied via the agar disc diffusion assay and broth microdilution method ([41], [42]). The agar plates were made by pouring 20 mL of LB broth containing 1.5% agar into 60-mm Petri dishes. Then, a 100-µL bacterial suspension (10^6 CFU/mL) was spread over the LB agar plate. Ten microliters of the 2-mg/mL peptide sample was carefully dropped onto sterile 2-mm diameter paper discs that had been previously attached to the plate. The plates were carefully placed in an incubator at 37°C for 24 hours. If an examined sample had antimicrobial activity, a clear zone was observed around the filter paper representing inhibition of bacterial growth. The MIC was determined by the broth dilution method, and the absorbance value was measured at an optical density at 600 nm (OD600) to determine the inhibition rate of peptides at different concentrations against each bacteria. Then, the MIC at which no visible growth occurred was recorded ([38]). The MIC50 was calculated by GraphPad Prism.

[4] = tested on: Escherichia coli (ATCC 25922); experiment: Antimicrobial assay, broth dilution; type: cell-based; conditions: E. coli
Description: as §1

[5] = tested on: Staphylococcus aureus (ATCC 6538); experiment: Antimicrobial assay, broth dilution; type: cell-based; conditions: S. aureus
Description: as §1

[6] = tested on: methyl-β-cyclodextrin-treated RBCs; experiment: Hemolytic activity on cholesterol-depleted erythrocytes; type: cell-based, human; conditions: RBCs treated with 7.5 mM methyl-β-cyclodextrin for 2 hours at 37°C
Text: Cholesterol is the main component of the RBC membrane and is important for maintaining its stability ([39]). Plasmodium falciparum infection efficiently depletes the red blood cells of cholesterol, which renders […] membranes susceptible to lysis ([40]). Therefore, methyl-β-cyclodextrin treatment was used to simulate the RBC cholesterol depletion caused by infection with Plasmodium. RBCs were washed once and then resuspended with PBS at 0.5% hematocrit. After treatment with the indicated concentration (7.5 mM) of methyl-β-cyclodextrin (Sigma) in RPMI for 2 hours at 37°C, the treated RBCs were washed with PBS and hemolysis assays were performed as described above. Two independent tests with five technical replicates were performed for each hemolysis assay.

[7] = tested on: RBCs infected by schizonts of P. falciparum 3D7; experiment: Hemolytic activity on RBCs infected by schizonts; type: cell-based, human; conditions: percoll-purified 3D7 schizonts, 2% hematocrit in PBS
Description: To test the hemolytic activity of the peptides against RBCs infected by Plasmodium, schizonts of the P. falciparum 3D7 strain were collected. The parasite culture of mainly schizonts was centrifuged and resuspended to 50% hematocrit. Then, the resuspended culture was carefully laid on top of the gradient with 3 mL 70% and 3 mL 40% percoll-sorbitol solution. After centrifugation at 2,300 × g for 20 min at 20°C, schizonts from the 40/70% interface were collected and washed twice with 10× volume of ICM. The collected parasites were resuspended in PBS to 2% hematocrit for hemolysis assay as described above.

[8] = tested on: HEK293T cells
Description: The mammalian cell lines HepG2 and HEK293T were used for cytotoxicity tests. The cells were cultured in Dulbecco’s modified Eagle medium supplemented with 10% fetal bovine serum and 1% penicillin/streptomycin in an incubator at 37°C with 5% CO2. Cells were seeded at a density of 1 × 10^5 cells/mL per well into a 96-well plate overnight and treated with different concentrations of peptides for 48 hours. To analyze the CC50 of peptides, a series of concentrations of peptides (0, 5, 10, 20, 30, 40, 50, 60, and 70 µM) were set to detect their cytotoxic concentrations. Then, 10% CCK-8 solution was added into each well and incubated for another 2 hours. The absorbance was monitored by a microplate reader at 450 nm. PBS was used as a negative control and the inhibition of each drug was normalized to that of the PBS control. CC50 was calculated by GraphPad Prism. Two independent assays with three technical replicates each time were conducted.

[9] = tested on: healthy erythrocytes (human RBCs)
Description: Hemolysis assays were performed using human RBCs according to previous reports ([38]). Briefly, serial dilutions of peptides were incubated with 2% hematocrit RBCs (in PBS) at 37°C for three different time points (15, 30, and 60 min) in triplicates. After incubation, the RBCs were centrifuged for 10 min at 1,000 × g and the absorbance of the supernatants at 540 nm was read by a spectrophotometer to assess the level of the released hemoglobin. Maximum hemolysis was determined by substituting the sample with 1% Triton X-100, which completely lyses the cells. […] Hemolysis of peptides was calculated using the following formula: Hemolysis (%) = (A540 of peptide- A540 of PBS) * 100/A540 of Triton X-100. Two independent tests with three technical replicates were performed for each hemolysis assay.

Sequence: APRWKFGKRLEKLGRNVFRAA KKALPVIAGYKAL-NH2 [An-cecB]
- inhibition rate ([1]; 50 µM peptide, 72 h, ring stage, 1% parasitemia, 2% hematocrit): 100%
- IC50 ([1]; 3D7, 72 h incubation, GraphPad Prism, two independent assays, three technical replicates): 12.4 µM
- activity against different blood stage parasites [2]: All parasite stages were killed
- MIC ([3]; OD600): 3.75 µM
- MIC50 ([3]; OD600, GraphPad Prism): 0.85 µM
- MIC ([4]; OD600): 3.75 µM
- MIC50 ([4]; OD600, GraphPad Prism): 0.63 µM
- MIC ([5]; OD600): 30 µM
- MIC50 ([5]; OD600, GraphPad Prism): 7.314 µM
- hemolysis of cholesterol-depleted erythrocytes [6]: significantly higher than that of controls
- hemolytic activity to infected erythrocytes [7]: specifically lysed infected erythrocytes
- CC50 [8]: 57.33 µM
- cytotoxicity to HEK293T cells [8]: dose-dependently inhibited the cell viability
- hemolysis rate ([9]; 10 µM): less than 2%
- hemolysis rate ([9]; 20 µM): less than 2%
- hemolysis rate ([9]; 40 µM): less than 5%
